US12053528B2, “Topical formulations comprising polyoxyl lipid or fatty acid and polyalkoxylated alcohol, and uses thereof” (Sun Pharmaceutical Industries Limited, priority 2015, dated 2024)

Test: Ocular tissue distribution of RX-10045 nanomicellar formulations (LC-MS/MS)
Assay type: in vivo, New Zealand White Rabbits
Conditions: after topical RX-10045 formulations 4x/day for 5 days
Method: A study is conducted in rabbits to test the tolerance and ocular tissue distribution of two nanomicellar formulations of active compound against matching placebos (Table 7a and 7b) and balanced saline solution (BSS). Healthy New Zealand female white rabbits (2-3 kg) are used for this study. One drop (approximately 35 μL) of study drug is applied o.d. 4×/day at two hour intervals for 5 days. One drop of BSS is applied to the contralateral eye.
Selected ocular fluids/tissues (aqueous humor, vitreous humor, conjunctiva, cornea, iris-ciliary body, lens, retina/choroid, and sclera) collected from two rabbits each in the active agent (0.15% in HCO-60, 0.1 in HCO-40) treatment groups, and from one rabbit in each of the matching placebo groups, are assayed for active compound by liquid chromatography-tandem mass spectrometry (LC-MS/MS). Warfarin-d5 and 5-HDA are used as internal standards for the analysis of RX-10045 and its active metabolite, RX-10008, respectively, in aqueous humor and vitreous humor. For the other ocular tissues (solid tissues), warfarin-d5 and phenyl acetic acid-d5 (PAA-d5) are used as the internal standards for compound 1001 and RX-10008, respectively. The analytical range for the solid tissues is 0.125-100 ng. The results of the solid tissue analyses are converted to ng/g by correcting for the amount of tissue analyzed.

- Concentrations of the compound 1001 ester prodrug in the sclera and conjunctiva: sporadic, relatively low
- Hydrolysis to active metabolite RX-10008 in ocular tissues: rapidly hydrolyzed
SMILES: C#CC[C@@H](O)/C=C/C=C/C#C[C@@H](O)CCCC(=O)OC(C)C [compound 1001]
- Compound 1001 in the majority of ocular tissues: either not detected or is below the quantitation limit of the assay
